Patent US20190054110A1, “MODULATORS OF CCR9 FOR TREATING TUMOR RESISTANCE TO IMMUNE RESPONSES” (DEUTSCHES KREBSFORSCHUNGSZENTRUM STIFTUNG DES ÖFFENTLICHEN …, priority 2016, published 2019)

What was measured:
[1] = tested on: MCF7 cells; experiment: Chromium-release cytotoxicity assay, MCF7 cells lysed by survivin-specific T cells; type: cell-based, human; conditions: versus control / CCR9 knockdown
Procedure: FIG. 1: CCR9 knockdown sensitizes tumor cells to immune attack (A) MCF7 cells were transfected with the described siRNA sequences and harvested after 72 h for mRNA and protein estimation using RT-PCR (upper) and immunoblot (lower) analysis, respectively. GAPDH and beta-actin were used as controls for RNA and protein normalization, respectively. (B) Luc-CTL cytotoxicity assay with PBMC-derived CTLs and bi-specific Ab as effector population and MCF7 as target cells, which were transfected with individual (s1-s4) or pooled CCR9 siRNA sequences. PD-L1 and non-specific control siRNAs were used as positive and negative controls, respectively, for CTL-mediated cytotoxicity. (C, D) Cr-release assay showing % specific lysis of MCF7 cells by survivin-specific T cells at different ratios upon CCR9 knockdown (C) or overexpression (D). MCF7 cells were transfected with either CCR9 siRNA s1 (Δ), pooled siRNA sequences (◯), positive control PD-L1 (□), and non-specific control siRNA (▪) (C) or with pCMV6-AC-His control vector (▪) and pCMV6-AC-His-CCR9 expression construct (∘) (D) 72 h prior to the assay. […] Error bars denote ±SEM, and statistical significance was calculated using the unpaired, two-tailed Student's t-test. […]

[2] = tested on: CCR9+ tumor cells; experiment: Transwell migration assay of CCR9+ tumor cells toward CCL25; type: cell-based

With pertussis toxin the “MCF7 lysis by survivin-specific CTL” value [1] was “did not elicit elevated tumor lysis” and the “migration of CCR9+ tumor cells toward CCL25” value [2] was “inhibited”.
